Source: publication PMC3983056 (PLoS Pathogens, 2014)
Several values for one entry are separate records, joined by “and”; a condition that tells them apart may be missing. Equal entries are not always repeated. Where two headings read alike, the source gives them in different places.

Tests used:
[1] = tested on: latent HIV in memory CD4 T cells from HIV-infected patients on suppressive cART
Excerpt: We used HIV RNA in cell culture supernatants as a surrogate marker for virion release from treated cells. We assumed that extracellular virions would accumulate over the course of several days; therefore, the duration of culture was extended to 6 days to maximize assay sensitivity.
(§4) HIV-infected patients participating in the study were selected based on sustained plasma viral load suppression (<50 copies/ml for >12 months), CD4 counts (>350 cells/µL), and absence of co-infection with hepatitis B or C virus (Supplementary Table S1). Clinical laboratory results were reconfirmed 2 weeks before leukapheresis or blood draw. Leukapheresis was conducted for 3–4 hours, and samples were processed within 2 hours after collection. The leukapheresis product was diluted 1∶1 with PBS and layered over Ficoll for isolation of PBMCs. […] Resting CD4 T cells were isolated by first enriching total CD4 T cells (StemCell Technologies) and subsequently depleting HLA-DR-, CD25-, and CD69-positive cells via negative selection (Miltenyi Biotec, Auburn, CA).
(§5) To assess HIV activation by HDACi, up to 5 million CD4 T cells were plated in 24-well plates in 2.5 ml of media, supplemented with antiretrovirals (ARVs) (100 nM elvitegravir and 100–300 nM efavirenz) for the entire duration of culture incubation. HDACi were added at specified concentrations on day 0 and cells or culture supernatants were harvested for the analysis of HIV RNA at the indicated time points (6–48 hours or 6–7 days, respectively). For HDACi pulse treatment, cultures were washed twice using ARV-containing media at 4 or 24 hours after addition of HDACi and incubated with ARVs until harvest. To measure HIV RNA levels, 1 ml of culture supernatant was analyzed by a robotic COBAS AmpliPrep/TaqMan system (Roche Diagnostics, Indianapolis, IN), which extracts total nucleic acid and quantifies HIV RNA in copies per milliliter using the HIV-1 Test, v2.0 kit (Roche Diagnostics). For the measurement of cell-associated HIV RNA levels, cells were washed with PBS, counted, and lysed (Qiagen RLT buffer, 400 µl for every 2 million cells; Qiagen, Venlo, Netherlands). Lysates were filtered through a Qiashredder (Qiagen). Total RNA was prepared from the lysates (400 µl) using a robotic system (QIAsymphony, Qiagen) that incorporates a DNase I digestion step to eliminate cellular DNA. The resulting total RNA was eluted with 200 µl of buffer, diluted to 1 ml with nuclease-free water, and analyzed by COBAS using the HIV-1 Test v2.0 kit. Preparations of both cell-associated RNA and supernatant total nucleic acids were tested for potential contamination with HIV DNA and/or host DNA by performing the PCR amplification in the presence and absence of reverse transcriptase and by a detection of GAPDH-encoding host DNA sequence.
(§6) HIV RNA-induction experiments were conducted using 5 to 6 replicates for every experimental condition, including vehicle-treated controls. Fold induction in HIV RNA levels was calculated as a ratio of mean signals from compound-treated and vehicle (DMSO)-treated control samples from the same donor under identical conditions. […] For experiments using blood-derived resting CD4 T cells, culture supernatants from 3 replicate wells were combined and analyzed using the COBAS system.

[2] = tested on: memory CD4 cells from HIV-infected patients; experiment: Viability of primary memory CD4 cells (Cell TiterGlo, 6 days); format: cell-based, human; conditions: same incubation period (6 days), data not shown
Procedure: Cell viability was determined using a Cell TiterGlo reagent 6 days after the initiation of treatment and is expressed as a percentage of cell viability relative to control vehicle-treated memory CD4 cells from the same donors. The data represent mean +/− S.D. from three independent donors. (TIF) Click here for additional data file.

[3] = Compound-associated cytotoxicity in latently infected cells (Cell Titer Glo); format: cell-based, human; conditions: human, latently infected (NL4.3-Luc) primary CD4+ T cells, continuous 48 hours, 50% cell viability reduction, three donors, mean ± SD
Procedure: (§1) Total peripheral blood mononuclear cells (PBMCs) were obtained from healthy HIV-negative donors by leukapheresis (AllCells, Inc, Emeryville, CA). Naive CD4+ T cells were purified by negative selection using EasySep magnetic beads (StemCells, Inc, Vancouver, Canada) and cultured in RPMI with 10% fetal bovine serum (FBS), penicillin/streptomycin, 1% nonessential amino acids (Life Technologies, Carlsbad, CA), 1% sodium pyruvate (Life Technologies) and 495 nM beta-mercaptoethanol (Sigma Aldrich, St. Louis, MO) in a 37°C, 5% CO2 incubator. Purified naive CD4+ T cells were activated by incubation with anti-CD3/CD28 magnetic Dynabeads (1 bead: 2 cells ratio, Life Technologies), 1 µg/ml anti-IL-4 (R&D Systems, Minneapolis, MN), 2 µg/ml anti-IL-12p70 antibodies (R&D Systems), and 10 ng/ml TGF-β (R&D Systems) for 3 days, [59]. Following the removal of anti-CD3/CD28 beads and antibodies, cells were maintained in 30 U/ml IL-2 (Life Technologies) for 2 days. Cells were then infected with NL4.3-Luc in the presence of 50 µg/ml DEAE for 3 hours. Cells were maintained in the continued presence of 30 U/ml IL-2 throughout the infection and subsequent rest period with culture medium with fresh IL-2 replaced every 2–3 days. Seven days post-infection, 20 µl of latently infected cells were dispensed into 384 well plates using a MicroFlo dispenser (Biotek Insturments, VT) at 10,000 cells/well containing 100 nl of compound solutions delivered by the Echo acoustic-based liquid dispenser (Labcyte, Sunnyvale, CA). After a 48-hour incubation, 16 µl/well BriteGlo (Promega, Madison, WI) was added and luminescence measured using the Envision plate reader (Perkin Elmer, Waltham, MA). Compound-associated cytotoxicity was determined in latently infected cells in parallel with the virus activation assay. Cells were incubated with compounds for 48 hours at 37°C, and cell viability was determined using Cell Titer Glo reagent (Promega).

[4] = tested on: HIV expressing a luciferase reporter gene (NL4-3-Luc) in latently infected primary CD4 T cells; experiment: microbe, parasite or virus in culture; format: cell-based; conditions: continuous 48 hours, cells from three healthy donors, mean ± SD
Excerpt: To assess clinically tested HDACi for their ability to activate HIV from latency, we first employed a previously described in vitro HIV latency model, [30] with several modifications to increase the sensitivity of detection. The assay involves freshly isolated naïve CD4 T cells from healthy donors polarized to a Th0 phenotype, which mimics memory CD4 T cells. These Th0 cells are then infected with HIV expressing a luciferase reporter gene and cultured for an additional 7 to 10 days until a latent infection is established.
as §1, with “Naive CD4+ T cells were purified by negative selection using EasySep magnetic beads (StemCells, Inc, Vancouver, Canada) and cultured in RPMI with 10% fetal bovine serum (FBS), penicillin/streptomycin, 1% nonessential amino acids (Life Technologies, Carlsbad, CA), 1% sodium pyruvate (Life Technologies) and 495 nM beta-mercaptoethanol (Sigma Aldrich, St. Louis, MO) in a 37°C, 5% CO2 incubator.” left out

[5] = Cell culture medium protein binding by equilibrium dialysis, HPLC/mass spectrometry; format: in vitro ADME
[6] = tested on: HIV gag-pol RNA from resting CD4 T cells of a cART-suppressed patient; experiment: Single-genome sequencing of HIV RNA in culture supernatants; format: cell-based; conditions: 2 µM SAHA, day 7
Excerpt: In parallel, we assessed the sequence diversity of HIV proviruses integrated in genomic DNA of resting CD4 T cells from the same culture.
Figure 8 Phylogenetic analysis of HIV sequences expressed ex vivo following the latency reversal. […] Single-genome sequencing was used to analyze patient HIV proviral DNA and plasma RNA at the initiation of treatment (day 0), together with the ex vivo induced HIV RNA in cell culture supernatants at the end of treatment (day 7). […] Identified HIV DNA and RNA sequences were aligned and the phylogenetic tree was constructed using Clustal W and MEAG5.
Single-genome sequencing of a portion of HIV-1 gag-pro-pol amplified from cell culture supernatants or cellular DNA extracts was performed as previously described [34]–[36]. Sequences were aligned using ClustalW and neighbor-joining phylogenetic analysis was performed using MEGA5. Trees were rooted on the subtype B consensus sequence (www.hiv.lanl.gov).

HIV = conditions: cited from earlier work
[7] = tested on: latent HIV in memory CD4 T cells from HIV-infected patients on suppressive cART; experiment: Ex vivo activation of HIV transcription, cell-associated HIV RNA, memory CD4 T cells; format: cell-based; conditions: memory CD4 T cells, 1 µM VOR
Procedure: (§2) To examine the kinetics of HIV induction, we analyzed cell-associated viral RNA levels at 6, 12, 24, and 48 hours after treatment initiation.
(§3) Lysates were filtered through a Qiashredder (Qiagen).

[8] = tested on: latent HIV in resting CD4 T cells from HIV-infected patients on suppressive cART; experiment: Ex vivo release of extracellular HIV RNA into culture supernatants, resting CD4 T cells; format: cell-based; conditions: resting CD4 T cells
Procedure: as §4, §5, §6

[9] = tested on: latently infected cells expressing Bcl2; set-up: method as in PMID 22406268; conditions: in vitro latency model with ectopic Bcl2; cited from earlier work
[10] = tested on: latent HIV in resting CD4 T cells from HIV-infected patients on suppressive cART; format: cell-based; conditions: for persistence of intracellular HIV RNA induction: pulse RMD 4 hours, VOR 24 hours, PNB 24 hours, 6 to 48 hours; for HIV RNA avg: Figure 4, 25 nM PNB, one value per donor
Procedure: as §2, §3

[11] = tested on: total class I and II HDAC enzyme activity in resting CD4 T cells; conditions: pulse RMD 4 hours, VOR 24 hours, PNB 24 hours, 6 to 48 hours
Procedure: Resting CD4 T cells obtained from HIV-infected patients on suppressive cART were incubated with serial dilutions of HDACi in 96-well plates at 10,000 cells/well for indicated time and then lysed by repeated freezing and thawing. Total cellular HDAC activity was measured using the HDAC-Glo I/II assay kit (Promega) according to the manufacturer's protocol.

[12] = Human immunodeficiency virus 1, NL43, CD4+ T, 48 h

With `CN(CC[C@H](N)CC(=O)N[C@H]1C=C[C@H](n2ccc(N)nc2=O)O[C@@H]1C(=O)O)C(=N)N` [blasticidine] the “release of HIV RNA into cell culture supernatants” value ([1]; highly cytotoxic control, data not shown) was “did not lead to release of detectable levels of HIV RNA” and the cell death [2] was over 80%.

In the case of `Nc1ccccc1NC(=O)c1ccc(CNc2nccc(-c3cccnc3)n2)cc1` [Mocetinostat, mocetinostat], the CC50 at 48 h [3] is reported as 10100 nM and the EC50 [4, 12] is reported as 13600 nM.

Work on `CCN(CC)Cc1ccc2cc(COC(=O)Nc3ccc(C(=O)NO)cc3)ccc2c1` [Givinostat, givinostat] yielded a CC50 at 48 h [3] of 24000 nM and an EC50 [4, 12] of 95.8 ± 20.3 nM.

`CCCCc1nc2cc(/C=C/C(=O)NO)ccc2n1CCN(CC)CC` [SB939, pracinostat] showed a CC50 at 48 h [3] of over 50000 nM and an EC50 [4, 12] of 212 ± 14 nM.

With `O=C(CCCCCCC(=O)Nc1ccccc1)NO` [VOR, suberoylanilide hydroxamic acid] the fraction unbound [5] was 0.68, the “HIV RNA in culture supernatants” value ([1]; memory CD4 T cells, 1 µM VOR continuous 6 days, two patients) was “no significant increase” and the “extracellular HIV RNA in culture supernatants” value ([1]; memory CD4 T cells, 0.5 and 1 µM VOR for 24 hours, day 6) was “lack of HIV RNA release”. For the same molecule, the CC50 at 48 h [3] was over 25000 nM, the “sequences of HIV RNA recovered in culture supernatants” value [6] was “No HIV RNA sequences were recovered” and the “effect on total proviral DNA in peripheral CD4 T cells” value (HIV; multiple-dose (14-day) trial of VOR) was “no apparent effect”. For the same molecule, the “mean increase in cell-associated HIV RNA levels” value (HIV; once-daily VOR for 14 consecutive days, 20 patients) was about 3 fold, the “mean increase in HIV RNA levels in resting CD4 T cells” value (HIV; single 400 mg dose of VOR, 8 HIV-infected patients on cART) was 4.8 fold and the “increases in the level of plasma viremia” value (HIV; single-dose and 14-day VOR studies) was “not observed”. For the same molecule, the “cell-associated HIV RNA at 48 hours” value [7] was “decreased by 48 hours to levels detected in vehicle-treated cells”, the “extracellular HIV RNA versus untreated controls” value ([8]; 0.5 µM VOR continuous 6 days) was “did not increase extracellular HIV RNA significantly” and the “patient-derived cultures with measurable increase of extracellular HIV RNA” value ([8]; 1 µM VOR continuous 6 days) was 3 of 7. The “cell death after HIV activation” value [9] was “does not lead to cell death”, the “cell-associated HIV RNA at 48 hours” value ([10]; resting CD4 T cells, 1 µM VOR) was “decreased by 48 hours to levels detected in vehicle-treated cells” and the “increase in intracellular HIV RNA levels versus vehicle” value ([10]; resting CD4 T cells, 1 µM VOR, 24-hour treatment) was “rapid, but transient and less-pronounced activation”. For the same molecule, the “persistence of intracellular HIV RNA induction” value ([10]; resting CD4 T cells) was “transient and diminished after 24 hours”.

In the case of `Cc1[nH]c2ccccc2c1CCNCc1ccc(/C=C/C(=O)NO)cc1` [PNB, panobinostat], the CC50 at 48 h [3] is listed as over 2500 nM, the “HIV transcription and viremia in peripheral blood” value (HIV; multiple doses of PNB, HIV-positive patients on suppressive cART) is listed as “induce intracellular HIV transcription and low-level viremia” and the EC50 [4, 12] is listed as 10 nM. For the same molecule, the EC50 [4] was 10.1 ± 1 nM, the “persistence of inhibition of cell-associated HDAC activity” value [11] was “transient and decreased after 24 hours of incubation” and the “HIV RNA avg” value ([10]; 6 hours) was 4342 copies/mil cells and 2414 copies/mil cells. The “HIV RNA avg” value ([10]; 24 hours) was 11600 copies/mil cells and 5606 copies/mil cells, the “HIV RNA avg” value ([10]; 48 hours) was 1815 copies/mil cells and 783 copies/mil cells and the “persistence of intracellular HIV RNA induction” value ([10]; resting CD4 T cells) was “transient and diminished after 24 hours”.
